Measured values reported in US20220324862A1, “PYRIDOPYRIMIDINONE COMPOUNDS” (Acerand Therapeutics (USA) Limited, priority 2021, published 2022).

Tests used:
[1] = test system: cellular pERK in NCI-H1975 cells (EGFR/L858R-T790M); assay: pERK Potency Assay; type: cell-based; settings: Homo sapiens, 1 hour incubation, Western blot, read-out: IC50 value, cellular pERK level
Text: The purpose of this assay is to measure the ability of test compounds to inhibit SOS1 function in cells. SOS1 activates RAS proteins by catalyzing the conversion of RAS-GDP to RAS-GTP in response to receptor tyrosine kinase activation. Activation of RAS induces a sequence of cellular signaling events that results in increased phosphorylation of ERK at Threonine 202 and Tyrosine 204 (pERK). The procedure described below measured the level of cellular pERK in response to test compounds in NCI-H1975 cells (EGFR/L858R-T790M).
NCI-H1975 cells were grown and maintained using media and procedures recommended by the ATCC. On the day prior to compound addition, cells were plated in 24-well cell culture plates (0.9 ml/well) and grown overnight in a 37° C., 5% CO2 incubator. Test compounds were prepared with 3-fold serial dilutions in DMSO, with a top concentration of 10 mM. On the day of the assay, 100 uL of each test compound diluted at 1:100 in media was added to each well of cell culture plate with final concentrations of the compound spanning 0.5 nM to 10 uM. After the compound was added, the cells were incubated for 1 hour at 37° C., 5% CO2. Following incubation, culture medium was removed, and the cells were washed once with phosphate buffered saline and lysed with lysis buffer (20 mM Tris-HCl, pH 7.5, 150 mM NaCl, 1 mM EDTA, 1 mM EGTA, 0.8% NP-40 plus 2× protease and phosphatase inhibitors). Cellular pERK level was determined using the Western blot analysis and quantified with Liqor software. Signal from Western blot was plotted and IC50 values were determined by fitting a 4-parameter sigmoidal concentration response model.

[2] = test system: NCI-H1975 cells; assay: 3D cell proliferation assay; type: cell-based; settings: Homo sapiens, ultra low attachment plate, 96 hours, 3D CTG
Method: This assay supports the molecular mode of action of compounds. Low IC50 values are indicative of high potency of the SOS1 inhibition. […] This supports the molecular mode of action of the SOS1 inhibitors as selectively targeting cancer cells dependent on receptor tyrosine kinase-RAS/SOS1-family protein function. Cell proliferation assays were performed in three-dimensional (3D) anchorage-independent conditions in 96 well ultra-low attachment plate with the following human cell lines:
NCI-H1975: human non-small cell lung cancer (NSCLC) with wild type KRAS and EGFR L858R/T790M mutation;
Cell lines were purchased from the American Type Culture Collection (ATCC), NCI, or European Collection of Authenticated Cell Cultures (ECACC). All cell lines were maintained in RPMI-1640 or DMEM with 10% heat inactivated fetal bovine serum.
Cells growing in log phase were detached with Gibco™ TrypLE™ Express Enzyme and plated in 96 well ultra low attachment plate at 15000 to 20000 cells/well in 100 μl of media. After overnight incubation at 37° C. and 5% CO2, the cells were treated with compounds (50 μL/well) at the final concentrations spanning 1 nM to 20 μM. Cells were incubated at 37° C., 5% CO2 and 95% humidity incubator for 96 hours. At the end of incubation, a 3D CTG reagent from Promega was added to each well according to vendors recommendation and mixed for 10 minutes in dark. The luminescence signals were determined using Biotek plate reader. The data was fitted using a sigmoidal curve analysis program (GraphPAD Prism) with variable hill slope.

Compound: C#C[C@@H](Nc1nc(C)nc2cc(=O)n(C3(C)CCN(C(C)=O)CC3)cc12)c1cccc(C(F)(F)F)c1C [Compound 33, (R)-6-(1-acetyl-4-methylpiperidin-4-yl)-2-methyl-4-((1-(2-methyl-3-(trifluoromethyl)phenyl)prop-2-yn-1-yl)amino)pyrido[4,3-d]pyrimidin-7(6H)-one]
- IC50 [1]: < 100 nM
- IC50 [2]: < 100 nM
